Counter-ions that a name gives are not always drawn.

For data set [1], the system named is skeletal muscle lactate dehydrogenase (LDH). The experiment in a line: Skeletal muscle lactate dehydrogenase (LDH) activity after forced swimming test. It is filed as in vivo, BALB/c mice. To be noted: Program II; male mice; Fluoxetine 10 mg/kg i.p. daily.
Data set [2] deals with skeletal muscle malate dehydrogenase (MDH). The data set can be described thus: Skeletal muscle malate dehydrogenase (MDH) activity after forced swimming test. It is filed as in vivo, BALB/c mice. To be noted: Program II; male mice; Fluoxetine 10 mg/kg i.p. daily.
Data set [3] can be described thus: Blood (serum) biochemical parameters after 28-day treatment. It is filed as in vivo, BALB/c mice. To be noted: male mice, 28 days.
The format of data set [4] is in vivo, BALB/c mice. To be noted: Program II; male mice; Fluoxetine 10 mg/kg i.p. daily, 4 weeks.

In the case of `CNCCC(Oc1ccc(C(F)(F)F)cc1)c1ccccc1` (centres unmarked) [Fluoxetine, fluoxetine hydrochloride], the “increase of LDH activity compared to the vehicle control treatment” value in data set [1] is on record as 1.3 fold. Besides, the “increase of MDH activity compared to the vehicle control treatment” value in data set [2] was 1.1 fold. In data set [3] (Fluoxetine 10 mg/kg i.p. daily), the “ALB, albumin (serum)” value is 3.67 ± 0.28 g/dL; the “ALP, alkaline phosphatase (serum)” value was found to be 501.2 ± 21.2 U/L; the “CHO, cholesterol (serum)” value was 136.5 ± 42.9 mg/dL; the “CTE, creatinine (serum)” value is listed as 0.45 ± 0.05 mg/dL. Further, in data set [3] (Fluoxetine 10 mg/kg i.p. daily), the “GLU, glucose (serum)” value is reported as 207.0 ± 12.6 mg/dL; the “GOT, glutamic oxaloacetic transaminase (serum)” value worked out at 171.0 ± 19.8 U/L; the “GPT, glutamic pyruvic transaminase (serum)” value is given as 61.2 ± 19.2 U/L; the “HDL, high-density lipoprotein (serum)” value came to 136.6 ± 15.3 mg/dL. In data set [3] (Fluoxetine 10 mg/kg i.p. daily), the “LDH, lactate dehydrogenase (serum)” value was 362.7 ± 65.3 U/L; the “TBIL, total bilirubin (serum)” value came out at 0.65 ± 0.04 mg/dL; the “TG, triglyceride (serum)” value came out at 288.3 ± 27.1 mg/dL; the “TP, total protein (serum)” value was determined as 5.01 ± 0.35 g/dL. The “UA, uric acid (serum)” value in data set [3] (Fluoxetine 10 mg/kg i.p. daily) was 2.77 ± 0.32 mg/dL. The “serum biochemical parameters” value in data set [3] (Fluoxetine i.p.) was “no significant difference and fall within the reference range of normal or healthy mice”. Further, the “body weight, feed and water intake” value in data set [4] was “did not have significant differences”.

(Values after patent US20240009259A1, “USE OF CRASSOCEPHALUM RABENS EXTRACT IN THE PREVENTION AND/OR TREATMENT OF FATIGUE AND/OR DEPRESSION” (ACADEMIA SINICA, priority 2021, published 2024).)
